IC50, EC50 and AC50 data for 7 molecules are collected here from ChEMBL document CHEMBL1201862, “PubChem BioAssay data set” (2004).

Structures can show the parent of a compound that is named as a salt. Calls of active or inactive are those of the source.

The nature of assay [1]: cytotoxicity toward HT-29 cells – cell-based, CellTiter-Glo luminescence, IC50, dose response (AID 1117330). Type of assay: functional. For orientation: ATP-based viability assays read luminescence as a measure of living cells.
A short description of assay [2]: RKO cell viability reduction, dose response, CellTiter-Glo luminescence (AID 1117322). It is filed as functional.
The nature of assay [3]: Concentration-dependent survival of SW480 colon cancer line, luminescence detection with CellTiter-Glo, half-maximal inhibitory concentration (AID 1117338). Type of assay: functional.
A short description of assay [4]: CellTiter-Glo luminescent dose response of DLD-1 viability loss (AID 1117352). Type of assay: functional.
Assay [5] is described as follows: SNU-C1 cell viability reduction, dose response, CellTiter-Glo luminescence (AID 1117323). It is filed as functional, cell-based.
Assay [6] in a line: cytotoxicity toward Colo320 cells – cell-based, CellTiter-Glo luminescence, IC50, dose response (AID 1117334). The following applies: COLO 320. It is filed as functional.
Assay [7] can be described thus: cytotoxicity toward HCT116 cells – cell-based, CellTiter-Glo luminescence, IC50, dose response (AID 1117332). Conditions: HCT-116. Type of assay: functional.
Assay [8] is described as follows: Luminescence-based cell-based high throughput dose response assay to identify activators of the DAF-12 from the parasite S. stercoralis (ssDAF-12). It is filed as functional.
The target of assay [9] is T1, Oxysterols receptor LXR-beta (Homo sapiens, UniProt P55055).
T1 sequence (P55055 whole entry): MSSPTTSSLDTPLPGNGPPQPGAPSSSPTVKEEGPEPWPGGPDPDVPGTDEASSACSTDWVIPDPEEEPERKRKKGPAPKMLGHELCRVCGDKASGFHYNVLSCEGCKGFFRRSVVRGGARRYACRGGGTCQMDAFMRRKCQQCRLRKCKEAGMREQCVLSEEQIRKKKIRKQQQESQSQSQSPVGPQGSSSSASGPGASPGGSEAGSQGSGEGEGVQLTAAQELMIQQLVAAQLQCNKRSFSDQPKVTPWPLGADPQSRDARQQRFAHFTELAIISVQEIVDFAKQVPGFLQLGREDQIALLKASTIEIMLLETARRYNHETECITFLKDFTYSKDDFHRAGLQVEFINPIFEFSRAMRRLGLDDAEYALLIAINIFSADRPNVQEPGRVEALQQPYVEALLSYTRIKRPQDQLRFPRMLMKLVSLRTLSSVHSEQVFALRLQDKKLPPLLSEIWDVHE
Kind of assay: LXR agonists, Gal4 luciferase reporter, dose response, counter-screen for ssDAF-12 agonist project, cell-based, luminescence, HEK293, S. stercoralis campaign (AID 720737). Type of assay: functional. The following applies: read-out: IC50 (the source's name). (In general: In a reporter assay the amount or activity of a reporter protein is the signal.)

Assay [10] is described as follows: YAP1 pathway inhibition via CTGF transcript levels, dose response, cell-based, DLD1 colon cancer, RT-qPCR, cherry-pick (AID 1053122). Type of assay: functional. Conditions: Cancer cell lines.
Assay [11] can be described thus: CTGF mRNA reduction under YAP1 overexpression, dose response, mechanism study for YAP1 pathway inhibitor project, DLD1 cells, RT-qPCR, cherry-pick (AID 1053127). Conditions: DLD-1. Type of assay: functional, cell-based. On the technique in general: In qPCR the cycle at which signal appears reflects the starting amount.
The nature of assay [12]: P. falciparum Dd2 blood-stage growth inhibition, dose response, SYBR Green fluorescence, erythrocytes, dry powder, set 2 (AID 1159574). Type of assay: functional, cell-based.
A short description of assay [13]: Late stage counterscreen for inhibitors of Trypanosoma brucei methionyl tRNA synthetase (MetRS): Luminescence-based cell-based high throughput dose response assay to identify compounds that are cytotoxic to Jurkat human T lymphocyte cells. It is filed as functional.
A short description of assay [14]: Counterscreen for inhibitors of Trypanosoma brucei methionyl tRNA synthetase (MetRS): Luminescence-based cell-based high throughput dose response assay to identify compounds that are cytotoxic to Jurkat human T lymphocyte cells. It is filed as functional.
Assay [15] deals with T2, Methionyl-tRNA synthetase, putative (Trypanosoma brucei brucei, UniProt Q38C91).
T2 sequence (Q38C91 whole entry): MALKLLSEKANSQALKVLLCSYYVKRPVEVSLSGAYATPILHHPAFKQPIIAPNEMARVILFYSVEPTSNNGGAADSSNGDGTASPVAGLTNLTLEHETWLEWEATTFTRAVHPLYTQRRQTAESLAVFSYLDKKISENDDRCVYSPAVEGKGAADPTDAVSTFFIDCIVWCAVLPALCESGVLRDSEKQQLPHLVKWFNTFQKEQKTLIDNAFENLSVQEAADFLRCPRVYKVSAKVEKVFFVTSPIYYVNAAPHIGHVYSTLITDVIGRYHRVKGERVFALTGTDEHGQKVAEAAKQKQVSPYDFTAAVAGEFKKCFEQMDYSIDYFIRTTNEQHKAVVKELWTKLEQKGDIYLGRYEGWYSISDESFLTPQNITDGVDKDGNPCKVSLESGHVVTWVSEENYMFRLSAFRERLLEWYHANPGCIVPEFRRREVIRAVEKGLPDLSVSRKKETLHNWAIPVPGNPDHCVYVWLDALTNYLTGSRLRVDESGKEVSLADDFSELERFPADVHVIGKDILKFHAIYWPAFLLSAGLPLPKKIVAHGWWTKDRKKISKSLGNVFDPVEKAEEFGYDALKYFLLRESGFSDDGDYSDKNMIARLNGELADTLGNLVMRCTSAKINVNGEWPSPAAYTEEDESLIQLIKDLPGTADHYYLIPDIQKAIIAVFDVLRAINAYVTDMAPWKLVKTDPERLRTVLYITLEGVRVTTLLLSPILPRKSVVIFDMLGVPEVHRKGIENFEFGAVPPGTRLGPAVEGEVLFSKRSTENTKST
It is filed as functional, Trypanosoma brucei brucei strain 927/4 GUTat10.1.

Assay [16] deals with T2, Methionyl-tRNA synthetase, putative. It is filed as functional, Trypanosoma brucei brucei strain 927/4 GUTat10.1. This is another data set of the same source.
The nature of assay [17]: P. falciparum 3D7-ScDHODH growth inhibitors, dose response, SYBR Green, dry powder samples (AID 1159570).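 Also: parasite growth measured after 72 hours of compound exposure.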 It is filed as functional, cell-based.
Assay [18] is described as follows: P. falciparum Dd2 growth inhibitors, dose response, SYBR Green, dry powder samples (AID 1159566).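 Also: potency for growth inhibition with lower SYBR green DNA signal.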 It is filed as functional, cell-based.
Assay [19] can be described thus: HepG2 cell cytotoxicity, dose response, cytotoxicity control, plate reader, dry powder samples (AID 1159569).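 Also: inhibitor potency with signal falling toward the positive control level.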 Type of assay: functional, cell-based.
Assay [20] in a line: P. falciparum ATP4 D1247Y mutant growth inhibitors, dose response, NITD609-resistant line, SYBR Green, dry powder (AID 1159571).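 Also: parasites synchronized at ring stage by sorbitol before testing.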 Type of assay: functional, cell-based.
Assay [21] can be described thus: A549 cell cytotoxicity, dose response, cytotoxicity control, plate reader, dry powder, set 6 (AID 743312). Type of assay: functional, cell-based.
A short description of assay [22]: HEK293T cell cytotoxicity, dose response, cytotoxicity control, plate reader, dry powder, set 10 (AID 743315). Type of assay: functional, cell-based. Conditions: HEK293.
A short description of another assay: cells. The following applies: HEK293.
A short description of assay [23]: HepG2 cell cytotoxicity, dose response, cytotoxicity control, plate reader, dry powder, set 6 (AID 743311). Type of assay: functional, cell-based.

As for `Cc1cccc(Cc2c[nH]cn2)c1C` [DETOMIDINE HYDROCHLORIDE], the IC50 in [1], in [2], in assay [3], in assay [4], in assay [5] and in assay [6] was > 20 µM (inactive) each time. For the same molecule, in assay [7], the IC50 – broadly, the concentration that gives 50% inhibition – was > 20 µM (inactive).

`Cc1ccnc(NC(=O)c2ccc3nc(O)c(O)nc3c2)c1`: the IC50 in assay [8] is > 67.5 µM (inactive). For the same molecule, the EC50 in assay [9] was > 67.5 µM (inactive).

Regarding `COc1ccccc1C#Cc1ccc([C@@H]2[C@@H](CO)N3CCCCN(C(=O)C4CCC4)C[C@@H]23)cc1`, the AC50 (as a rule, the concentration giving half of the maximal activity seen) in [10] was 15.9 µM (active); in assay [11] it was 17.7 µM (active).

With `COc1ccc2c3c([nH]c2c1)[C@@H](CO)N(C(C)=O)CC31CCN(C(=O)Nc2ccccc2F)CC1`, the AC50 in assay [12] is 2.48 µM (active).

`O=C1[C@@H]2Cc3c([nH]c4ccccc34)C(c3cccc([N+](=O)[O-])c3)N2C(=O)CN1CCCO` (some centres undefined): the IC50 in assay [13] was > 83.3 µM (inactive); in assay [14], 83.3 µM (inactive); in [15], 911 nM (active); in assay [16] it was 528 nM (active).

Consider `C[C@H]1CN([C@@H](C)CO)C(=O)c2c(c3ccccc3n2C)-c2ccccc2CO[C@H]1CN(C)S(=O)(=O)c1ccc(F)cc1`, for which the AC50 in assay [17] was 819 nM (active); in assay [18], 470 nM (active); in [19], 50.9 µM (active); in assay [20] it was 1.05 µM (active).

Regarding `Cc1cccc(OCCn2c(S)nc3cc(F)ccc32)c1`, the AC50 is 23.4 µM (active) in assay [21], > 52 µM (inactive) in [22], > 52 µM (inactive) in the assay “cells” and 44.9 µM (active) in assay [23].
